Laboratory results: patent US7138361B2, “Herbicidal heterocycles” (E. I. du Pont de Nemours and Company, priority 2000, dated 2006)

Assays:
Assay type in all cases: in vivo
corn (Zea mays) [1] = test: Test B preemergence
Source text: (§1) Seeds selected from barnyardgrass (Echinochloa crus-galli), Surinam grass (Brachiaria decumbens), cocklebur (Xanthium strumarium), corn (Zea mays), crabgrass (Digitaria sanguinalis), giant foxtail (Setaria faberii), lambsquarters (Chenopodium album), morning glory (Ipomoea hederacea), pigweed (Amaranthus retroflexus), rice (Oryza saliva) and velvetleaf (Abutilon theophrasti) were planted and treated preemergence with test chemicals formulated in a non-phytotoxic solvent mixture which included a surfactant.
(§2) At the same time, plants selected from these crop and weed species and also blackgrass (Alopecurus myosuroides), wheat (Triticum aestivum) and wild oat (Avena fatua) were treated with postemergence applications of test chemicals formulated in the same manner. Plants ranged in height from 2 to 18 cm (1- to 4-leaf stage) for postemergence treatments. Plant species in the flooded paddy test consisted of rice (Oryza saliva), smallflower flatsedge (Cyperus difformis), duck salad (Heteranthera limosa) and barnyardgrass (Echinochloa crus-galli) grown to the 2-leaf stage for testing. Treated plants and controls were maintained in a greenhouse for 13 to 15 days, after which time all species were compared to controls and visually evaluated. Plant response ratings, summarized in Table B, are based on a scale of 0 to 100 where 0 is no effect and 100 is complete control. A dash (-) response means no test result.

[2] = tested on: lambsquarters (Chenopodium album); test: Test B preemergence
Source text: as §1, §2

[3] = tested on: morning glory (Ipomoea hederacea); test: Test B preemergence
Source text: as §1, §2

[4] = tested on: giant foxtail (Setaria faberii); test: Test B preemergence
Source text: as §1, §2

[5] = tested on: Surinam grass (Brachiaria decumbens); test: Test B preemergence
Source text: as §1, §2

[6] = tested on: velvetleaf (Abutilon theophrasti); test: Test B preemergence
Source text: as §1, §2

[7] = tested on: cocklebur (Xanthium strumarium); test: Test B preemergence
Source text: as §1, §2

rice (Oryza saliva) [8] = test: Test B preemergence
Source text: as §1, §2

[9] = tested on: crabgrass (Digitaria sanguinalis); test: Test B preemergence
Source text: as §1, §2

[10] = tested on: pigweed (Amaranthus retroflexus); test: Test B preemergence
Source text: as §1, §2

[11] = tested on: barnyardgrass (Echinochloa crus-galli); test: Test B preemergence
Source text: as §1, §2

[12] = tested on: duck salad (Heteranthera limosa); test: Test C flooded paddy test; details: for Ducksalad plant response rating: Flooded Paddy, scale 0 to 100, 0 no effect, 100 complete control; for Plant response rating, Ducksalad: flooded paddy test, scale 0 to 100 (0 no effect, 100 complete control)
Description: (§3) At the same time, plants selected from these crop and weed species and also winter barley (Hordeum vulgare), blackgrass (Alopecurus myosuroides), canary grass (Phalaris minor), chickweed (Stellaria media), downy brome (Bromus tectorum), green foxtail (Setaria viridis), Italian ryegrass (Lolium multiflorum), wheat (Triticum aestivum), wild oat (Avena fatua) and windgrass (Apera spica-venti) were treated with postemergence applications of some of the test chemicals formulated in the same manner. Plants ranged in height from 2 to 18 cm (1- to 4-leaf stage) for postemergence treatments. Plant species in the flooded paddy test consisted of rice (Oryza saliva), smallflower flatsedge (Cyperus difformis), duck salad (Heteranthera limosa) and barnyardgrass (Echinochloa crus-galli) grown to the 2-leaf stage for testing. Treated plants and controls were maintained in a greenhouse for 12 to 14 days, after which time all species were compared to controls and visually evaluated. Plant response ratings, summarized in Table C, are based on a scale of 0 to 100 where 0 is no effect and 100 is complete control. A dash (-) response means no test result.

[13] = tested on: smallflower flatsedge (Cyperus difformis); test: Test C flooded paddy test; details: for Flatsedge plant response rating: Flooded Paddy, scale 0 to 100, 0 no effect, 100 complete control; for Plant response rating, Flatsedge: flooded paddy test, scale 0 to 100 (0 no effect, 100 complete control)
Description: as §3

rice (Oryza saliva) [14] = test: Test C flooded paddy test; details: for Rice plant response rating: Flooded Paddy, scale 0 to 100, 0 no effect, 100 complete control; for Plant response rating, Rice: flooded paddy test, scale 0 to 100 (0 no effect, 100 complete control)
Description: as §3

[15] = tested on: barnyardgrass (Echinochloa crus-galli); test: Test C flooded paddy test; details: for Barnyardgrass plant response rating: Flooded Paddy, scale 0 to 100, 0 no effect, 100 complete control; for Plant response rating, Barnyardgrass: flooded paddy test, scale 0 to 100 (0 no effect, 100 complete control)
Description: as §3

corn (Zea mays) [16] = test: Test B postemergence; details: 13 to 15 days
Source text: as §1, §2

[17] = tested on: lambsquarters (Chenopodium album); test: Test B postemergence; details: Rate 500 g/ha, scale 0 to 100, 0 is no effect, 100 is complete control, 13 to 15 days
Source text: as §1, §2

[18] = tested on: morning glory (Ipomoea hederacea); test: Test B postemergence; details: Rate 500 g/ha, scale 0 to 100, 0 is no effect, 100 is complete control, 13 to 15 days
Source text: as §1, §2

[19] = tested on: giant foxtail (Setaria faberii); test: Test B postemergence; details: 13 to 15 days
Source text: as §1, §2

[20] = tested on: Surinam grass (Brachiaria decumbens); test: Test B postemergence; details: 13 to 15 days
Source text: as §1, §2

[21] = tested on: wheat (Triticum aestivum); test: Test B postemergence; details: Rate 500 g/ha, scale 0 to 100, 0 is no effect, 100 is complete control, 13 to 15 days
Source text: as §1, §2

wild oat (Avena fatua) = test: Test B postemergence; details: Rate 500 g/ha, scale 0 to 100, 0 is no effect, 100 is complete control, 13 to 15 days
Source text: as §1, §2

[22] = tested on: velvetleaf (Abutilon theophrasti); test: Test B postemergence; details: Rate 500 g/ha, scale 0 to 100, 0 is no effect, 100 is complete control, 13 to 15 days
Source text: as §1, §2

[23] = tested on: crabgrass (Digitaria sanguinalis); test: Test B postemergence; details: 13 to 15 days
Source text: as §1, §2

[24] = tested on: pigweed (Amaranthus retroflexus); test: Test B postemergence; details: Rate 500 g/ha, scale 0 to 100, 0 is no effect, 100 is complete control, 13 to 15 days
Source text: as §1, §2

[25] = tested on: blackgrass (Alopecurus myosuroides); test: Test B postemergence; details: 13 to 15 days
Source text: as §1, §2

[26] = tested on: barnyardgrass (Echinochloa crus-galli); test: Test B postemergence; details: 13 to 15 days
Source text: as §1, §2

[27] = Preemergence, Rate 500 g/ha, scale 0 to 100, 0 no effect, 100 complete control
[28] = preemergence, Rate 125 g/ha, scale of 0 to 100 where 0 is no effect and 100 is complete control, 13 to 15 days
[29] = Rate 125 g/ha, scale 0 (no effect) to 100 (complete control)
[30] = Rate 500 g/ha, scale 0 to 100, 0 is no effect, 100 is complete control

CC(C)(C)c1ccn(C2CCN(c3cccc(C#N)c3)C2=O)n1 (centres unmarked) [Compound 104]
Plant response rating, Corn (corn (Zea mays) [1]; [27]): 0 | Plant response rating, Corn (corn (Zea mays) [1]; [28]): 0 | Plant response rating, Lambsquarters [2, 27]: 100 | Plant response rating, Lambsquarters [2, 28]: 100 | Plant response rating, Morningglory [3, 27]: 0 | Plant response rating, Morningglory [3, 28]: 0 | Plant response rating, Foxtail, Giant [4, 27]: 0 | Plant response rating, Foxtail, Giant [4, 28]: 0 | Plant response rating, Surinam grass [5, 27]: 0 | Plant response rating, Surinam grass [5, 28]: 0 | Plant response rating, Velvetleaf [6, 27]: 0 | Plant response rating, Velvetleaf [6, 28]: 0 | Plant response rating, Cocklebur [7, 27]: 0 | Plant response rating, Cocklebur [7, 28]: 0 | Plant response rating, Rice (rice (Oryza saliva) [8]; [27]): 0 | Plant response rating, Rice (rice (Oryza saliva) [8]; [28]): 0 | Plant response rating, Crabgrass [9, 27]: 0 | Plant response rating, Crabgrass [9, 28]: 0 | Plant response rating, Pigweed [10, 27]: 100 | Plant response rating, Pigweed [10, 28]: 70 | Plant response rating, Barnyardgrass [11, 27]: 0 | Plant response rating, Barnyardgrass [11, 28]: 0 | Ducksalad plant response rating ([12]; Rate 250 g/ha): 0 | Ducksalad plant response rating ([12]; Rate 500 g/ha): 0 | Plant response rating, Ducksalad ([12]; Rate 62 g/ha): 0 | Plant response rating, Ducksalad ([12]; Rate 125 g/ha): 0 | Flatsedge plant response rating ([13]; Rate 250 g/ha): 0 | Flatsedge plant response rating ([13]; Rate 500 g/ha): 0 | Plant response rating, Flatsedge ([13]; Rate 62 g/ha): 0 | Plant response rating, Flatsedge ([13]; Rate 125 g/ha): 0 | Rice plant response rating (rice (Oryza saliva) [14]; Rate 250 g/ha): 0 | Rice plant response rating (rice (Oryza saliva) [14]; Rate 500 g/ha): 0 | Plant response rating, Rice (rice (Oryza saliva) [14]; Rate 62 g/ha): 0 | Plant response rating, Rice (rice (Oryza saliva) [14]; Rate 125 g/ha): 0 | Barnyardgrass plant response rating ([15]; Rate 250 g/ha): 0 | Barnyardgrass plant response rating ([15]; Rate 500 g/ha): 0 | Plant response rating, Barnyardgrass ([15]; Rate 62 g/ha): 0 | Plant response rating, Barnyardgrass ([15]; Rate 125 g/ha): 0 | Plant response rating, Corn (corn (Zea mays) [16]; [29]): 0 | Plant response rating, Corn (corn (Zea mays) [16]; [30]): 0 | Plant response rating, Lambsquarters [17]: 0 | Plant response rating, Morningglory [18]: 0 | Plant response rating, Foxtail, Giant [19, 29]: 0 | Plant response rating, Foxtail, Giant [19, 30]: 0 | Plant response rating, Surinam grass [20, 29]: 0 | Plant response rating, Surinam grass [20, 30]: 0 | Plant response rating, Wheat [21]: 0 | Plant response rating, Wild Oat (wild oat (Avena fatua)): 0 | Plant response rating, Velvetleaf [22]: 0 | Plant response rating, Crabgrass [23, 29]: 0 | Plant response rating, Crabgrass [23, 30]: 0 | Plant response rating, Pigweed [24]: 0 | Plant response rating, Blackgrass [25, 29]: 0 | Plant response rating, Blackgrass [25, 30]: 0 | Plant response rating, Barnyardgrass [26, 29]: 0 | Plant response rating, Barnyardgrass [26, 30]: 0
